Results taken from US9822105B2, “Diaminotriazine compounds as herbicides” (BASF SE, priority 2014, dated 2017).

Key:
AMARE [1] = assay: Greenhouse test, pre-emergence treatment; assay type: in vivo, Amaranthus retroflexus; conditions: for pest or weed control at 250 g/ha / pest or weed control at 125 g/ha / pest or weed control at 500 g/ha: Amaranthus retroflexus; for pest or weed control at 250 g/ha: read-out: herbicidal activity, 250 g/ha; for pest or weed control at 125 g/ha: read-out: herbicidal activity, 125 g/ha; for pest or weed control at 500 g/ha: read-out: herbicidal activity, 500 g/ha
Description: (§1) The seeds of the test plants were sown separately for each species. For the pre-emergence treatment, the active ingredients, which had been suspended or emulsified in water, were applied directly after sowing by means of finely distributing nozzles. The containers were irrigated gently to promote germination and growth and subsequently covered with transparent plastic hoods until the plants had rooted. This cover caused uniform germination of the test plants, unless this had been impaired by the active ingredients. Depending on the species, the plants were kept at 10-25° C. or 20-35° C., respectively. The test period extended over 2 to 4 weeks. During this time, the plants were tended, and their response to the individual treatments was evaluated. Evaluation was carried out using a scale from 0 to 100. 100 means no emergence of the plants, or complete destruction of at least the aerial moieties, and 0 means no damage, or normal course of growth. […] The plants used in the greenhouse experiments were of the following species: [table]

ABUTH = assay: Greenhouse test, pre-emergence treatment; assay type: in vivo, Abutilon theophrasti
Description: as §1

ECHCG = assay: Greenhouse test, pre-emergence treatment; assay type: in vivo, Echinocloa crus-galli
Description: as §1

SETFA = assay: Greenhouse test, pre-emergence treatment; assay type: in vivo, Setaria faberi
Description: as §1

ALOMY = assay: Greenhouse test, pre-emergence treatment; assay type: in vivo, Alopecurus myosuroides; conditions: 0.5 kg/ha
Description: as §1

AMARE [2] = assay: Greenhouse test, post-emergence treatment; assay type: in vivo, Amaranthus retroflexus; conditions: 500 g/ha
Description: The seeds of the test plants were sown separately for each species. For the post-emergence treatment, the test plants were first grown to a height of […], depending on the plant habit, and only then treated with the active ingredients which had been suspended or emulsified in water. For this purpose, the test plants were either sown directly and grown in the same containers, or they were first grown separately as seedlings and transplanted into the test containers a few days prior to treatment. Depending on the species, the plants were kept at 10-25° C. or 20-35° C., respectively. The test period extended over 2 to 4 weeks. During this time, the plants were tended, and their response to the individual treatments was evaluated. Evaluation was carried out using a scale from 0 to 100. 100 means no emergence of the plants, or complete destruction of at least the aerial moieties, and 0 means no damage, or normal course of growth. […] The plants used in the greenhouse experiments were of the following species: [table]

## CC1Oc2ccc(Cl)c(Nc3nc(N)nc(C(C)(C)F)n3)c2O1 (racemic) [Example 12]
AMARE [1]; 250 g/ha
  herbicidal activity: very good (a very good herbicidal activity is given at values of at least 85)
ABUTH; 250 g/ha
  herbicidal activity: very good (a very good herbicidal activity is given at values of at least 85)
ECHCG; 250 g/ha
  herbicidal activity: very good (a very good herbicidal activity is given at values of at least 85)

## CCC(C)c1nc(N)nc(Nc2c(F)ccc3c2OCO3)n1 (racemic) [Example 16]
AMARE [1]; 125 g/ha
  herbicidal activity: very good (a very good herbicidal activity is given at values of at least 85)
ABUTH; 125 g/ha
  herbicidal activity: good (a good herbicidal activity is given at values of at least 70)

## CC1CCCN1c1nc(N)nc(Nc2c(F)ccc3c2OCO3)n1 (racemic) [Example 19]
AMARE [1]; 500 g/ha
  herbicidal activity: very good (a very good herbicidal activity is given at values of at least 85)

## COC(C)c1nc(N)nc(Nc2c(F)ccc3c2OCO3)n1 (racemic) [Example 32]
AMARE [1]; 125 g/ha
  herbicidal activity: good (a good herbicidal activity is given at values of at least 70)
ABUTH; 125 g/ha
  herbicidal activity: good (a good herbicidal activity is given at values of at least 70)

## CCC(F)c1nc(N)nc(Nc2c(F)ccc3c2OCO3)n1 (racemic) [Example 33]
AMARE [1]; 125 g/ha
  herbicidal activity: very good (a very good herbicidal activity is given at values of at least 85)

## CC1Oc2ccc(F)c(Nc3nc(N)nc(C(C)(C)F)n3)c2O1 (single isomer, unassigned) [Example 7]
AMARE [1]; 250 g/ha
  herbicidal activity: very good (a very good herbicidal activity is given at values of at least 85)
ABUTH; 250 g/ha
  herbicidal activity: very good (a very good herbicidal activity is given at values of at least 85)
SETFA; 250 g/ha, SETFA
  herbicidal activity: very good (a very good herbicidal activity is given at values of at least 85)

## CC1Oc2ccc(F)c(Nc3nc(N)nc(C(C)(C)F)n3)c2O1 (single isomer, unassigned) [Example 8]
AMARE [1]; 250 g/ha
  herbicidal activity: very good (a very good herbicidal activity is given at values of at least 85)
ABUTH; 250 g/ha
  herbicidal activity: very good (a very good herbicidal activity is given at values of at least 85)
SETFA; 250 g/ha, SETFA
  herbicidal activity: very good (a very good herbicidal activity is given at values of at least 85)

## CC1Oc2ccc(F)c(Nc3nc(N)nc(C(C)(C)F)n3)c2O1 (single isomer, unassigned) [Example 35]
ECHCG; 250 g/ha
  herbicidal activity: very good (a very good herbicidal activity is given at values of at least 85)

## CC(C)(F)c1nc(N)nc(Nc2c(Cl)ccc3c2OCO3)n1 [Example 2]
AMARE [1]; 0.5 kg/ha
  herbicidal activity: very good (a very good herbicidal activity is given at values of at least 85)
ALOMY
  herbicidal activity: very good (a very good herbicidal activity is given at values of at least 85)
SETFA; 0.5 kg/ha, SETFA
  herbicidal activity: very good (a very good herbicidal activity is given at values of at least 85)

## CC(C)(F)c1nc(N)nc(Nc2c(Br)c(Br)cc3c2OCO3)n1 [Example 4]
ABUTH; 125 g/ha
  herbicidal activity: good (a good herbicidal activity is given at values of at least 70)

## Nc1nc(Nc2c(F)ccc3c2OCO3)nc(C2(Cl)CCC2)n1 [Example 5]
AMARE [1]
  pest or weed control at 250 g/ha: ≥ 85%
ECHCG; 250 g/ha
  herbicidal activity: very good (a very good herbicidal activity is given at values of at least 85)
SETFA; 250 g/ha, SETFA
  herbicidal activity: very good (a very good herbicidal activity is given at values of at least 85)

## Nc1nc(Nc2c(Br)ccc3c2OC(F)(F)O3)nc(C2(Cl)CCCC2)n1 [Example 9]
AMARE [2]
  herbicidal activity: very good (a very good herbicidal activity is given at values of at least 85)

## CC1(C)Oc2ccc(Cl)c(Nc3nc(N)nc(C(C)(C)F)n3)c2O1 [Example 11]
AMARE [1]; 250 g/ha
  herbicidal activity: very good (a very good herbicidal activity is given at values of at least 85)
ABUTH; 250 g/ha
  herbicidal activity: very good (a very good herbicidal activity is given at values of at least 85)
ECHCG; 250 g/ha
  herbicidal activity: very good (a very good herbicidal activity is given at values of at least 85)

## CC1(C)Oc2ccc(F)c(Nc3nc(N)nc(C(C)(C)F)n3)c2O1 [Example 14]
AMARE [1]; 250 g/ha
  herbicidal activity: very good (a very good herbicidal activity is given at values of at least 85)
ABUTH; 250 g/ha
  herbicidal activity: very good (a very good herbicidal activity is given at values of at least 85)
ECHCG; 250 g/ha
  herbicidal activity: very good (a very good herbicidal activity is given at values of at least 85)

## Nc1nc(Nc2c(F)ccc3c2OCO3)nc(C2(F)CCCC2)n1 [Example 15]
AMARE [1]; 250 g/ha
  herbicidal activity: very good (a very good herbicidal activity is given at values of at least 85)
ABUTH; 250 g/ha
  herbicidal activity: very good (a very good herbicidal activity is given at values of at least 85)
SETFA; 250 g/ha, SETFA
  herbicidal activity: very good (a very good herbicidal activity is given at values of at least 85)

## CC(C)c1nc(N)nc(Nc2c(F)ccc3c2OCO3)n1 [Example 17]
AMARE [1]
  pest or weed control at 125 g/ha: ≥ 85%
ABUTH; 125 g/ha
  herbicidal activity: good (a good herbicidal activity is given at values of at least 70)

## Nc1nc(Nc2c(F)ccc3c2OCO3)nc(N2CCCC2)n1 [Example 20]
AMARE [1]
  pest or weed control at 500 g/ha: ≥ 85%

## COC1(c2nc(N)nc(Nc3c(F)ccc4c3OCO4)n2)CCCCC1 [Example 23]
AMARE [1]
  pest or weed control at 125 g/ha: ≥ 85%
ECHCG; 125 g/ha
  herbicidal activity: good (a good herbicidal activity is given at values of at least 70)
SETFA; 125 g/ha, SETFA
  herbicidal activity: good (a good herbicidal activity is given at values of at least 70)

## CC(C)(C)Cc1nc(N)nc(Nc2c(F)ccc3c2OCO3)n1 [Example 24]
AMARE [1]; 125 g/ha
  herbicidal activity: very good (a very good herbicidal activity is given at values of at least 85)
ABUTH; 125 g/ha
  herbicidal activity: very good (a very good herbicidal activity is given at values of at least 85)
ECHCG; 125 g/ha
  herbicidal activity: very good (a very good herbicidal activity is given at values of at least 85)

## CON(C)c1nc(N)nc(Nc2c(F)ccc3c2OCO3)n1 [Example 25]
AMARE [1]; 500 g/ha
  herbicidal activity: very good (a very good herbicidal activity is given at values of at least 85)

## CC(C)Cc1nc(N)nc(Nc2c(F)ccc3c2OCO3)n1 [Example 26]
AMARE [1]; 125 g/ha
  herbicidal activity: very good (a very good herbicidal activity is given at values of at least 85)
ECHCG; 125 g/ha
  herbicidal activity: good (a good herbicidal activity is given at values of at least 70)
SETFA; 125 g/ha, SETFA
  herbicidal activity: good (a good herbicidal activity is given at values of at least 70)

## Nc1nc(Nc2c(F)ccc3c2OCO3)nc(C2CCCCC2)n1 [Example 27]
AMARE [1]
  pest or weed control at 125 g/ha: ≥ 85%
SETFA; 125 g/ha, SETFA
  herbicidal activity: good (a good herbicidal activity is given at values of at least 70)

## Nc1nc(Nc2c(F)ccc3c2OCO3)nc(C2CCCC2)n1 [Example 28]
AMARE [1]
  pest or weed control at 125 g/ha: ≥ 85%
ECHCG; 125 g/ha
  herbicidal activity: good (a good herbicidal activity is given at values of at least 70)

## CC(C)(C)c1nc(N)nc(Nc2c(F)ccc3c2OCO3)n1 [Example 29]
AMARE [1]
  pest or weed control at 125 g/ha: ≥ 85%
ABUTH; 125 g/ha
  herbicidal activity: very good (a very good herbicidal activity is given at values of at least 85)
ECHCG; 125 g/ha
  herbicidal activity: very good (a very good herbicidal activity is given at values of at least 85)

## CC(C)(F)c1nc(N)nc(Nc2c(Cl)c(Cl)cc3c2OCO3)n1 [Example 31]
AMARE [1]; 125 g/ha
  herbicidal activity: very good (a very good herbicidal activity is given at values of at least 85)
ECHCG; 125 g/ha
  herbicidal activity: good (a good herbicidal activity is given at values of at least 70)
SETFA; 125 g/ha, STEFTA
  herbicidal activity: very good (a very good herbicidal activity is given at values of at least 85)

## Cn1c(=O)oc2c(Nc3nc(N)nc(C(C)(C)F)n3)c(F)ccc21 [Example 38]
AMARE [1]; 500 g/ha
  herbicidal activity: very good (a very good herbicidal activity is given at values of at least 85)

## CC(C)(F)c1nc(N)nc(Nc2c(F)ccc3ncoc23)n1 [Example 39]
AMARE [1]
  pest or weed control at 250 g/ha: ≥ 85%
ABUTH; 250 g/ha
  herbicidal activity: very good (a very good herbicidal activity is given at values of at least 85)

## CC(C)(F)c1nc(N)nc(Nc2c(F)ccc3c2CCC3)n1 [Example 41]
AMARE [1]
  pest or weed control at 500 g/ha: ≥ 85%

## CC(C)(F)c1nc(N)nc(Nc2c(Cl)ccc3c2OCCO3)n1 [Example 42]
AMARE [1]
  pest or weed control at 125 g/ha: ≥ 85%

## CC(C)(F)c1nc(N)nc(Nc2c(F)ccc3c2OCCO3)n1 [Example 43]
AMARE [1]
  pest or weed control at 500 g/ha: ≥ 85%

## CC(C)(F)c1nc(N)nc(Nc2c(Cl)ccc3c2OC=CO3)n1 [Example 44]
AMARE [1]
  pest or weed control at 500 g/ha: ≥ 85%
ECHCG; 500 g/ha
  herbicidal activity: very good (a very good herbicidal activity is given at values of at least 85)

## CC(C)(F)c1nc(N)nc(Nc2c(F)ccc3c2OC=CO3)n1 [Example 45]
AMARE [1]
  pest or weed control at 125 g/ha: ≥ 85%
ABUTH; 125 g/ha
  herbicidal activity: very good (a very good herbicidal activity is given at values of at least 85)

## CC(C)(F)c1nc(N)nc(Nc2c(Cl)ccc3c2CCC3)n1 [Example 47]
ABUTH; 250 g/ha
  herbicidal activity: good (a good herbicidal activity is given at values of at least 70)
ECHCG; 250 g/ha
  herbicidal activity: good (a good herbicidal activity is given at values of at least 70)
